Here are results for 3 compounds from US11726079B2, “Lighting systems and methods of using lighting systems for in vitro potency assay for Photofrin” (Concordia Laboratories, Inc., priority 2012, dated 2023).

For the assay, the system named is A549 human lung carcinoma cells. In words: Chemotherapeutic drugs as possible positive control, 24 hour incubation with XTT endpoint. Type of assay: cell-based. Conditions: data not shown. On the procedure: The broadly active chemotherapeutics drugs SN-38 (20 μM top dose), the active metabolite of irinotecan, carboplatin (7.5 mM top dose), and paclitaxel (20 μM top dose) are tested to determine if sufficient cell killing can be achieved under the anticipated assay conditions, i.e., 24 hour incubation with XTT endpoint.
For orientation: Tetrazolium dyes change colour on reduction, which living cells bring about.

Turning to `CCc1c2c(nc3ccc(O)cc13)-c1cc3c(c(=O)n1C2)COC(=O)[C@]3(O)CC` [SN-38], the cell killing result (20 μM top dose) was “None of the drugs produce sufficient cell killing”.

Take `N.N.O=C([O-])C1(C(=O)[O-])CCC1.[Pt+2]` [carboplatin]: the cell killing entry (7.5 mM top dose) is listed as “None of the drugs produce sufficient cell killing”.

`CC(=O)O[C@H]1C(=O)[C@@]2(C)[C@H]([C@H](OC(=O)c3ccccc3)[C@]3(O)C[C@H](OC(=O)[C@H](O)[C@@H](NC(=O)c4ccccc4)c4ccccc4)C(C)=C1C3(C)C)[C@]1(OC(C)=O)CO[C@@H]1C[C@@H]2O` [paclitaxel]: the cell killing entry (20 μM top dose) is “None of the drugs produce sufficient cell killing”.
